Source: patent US20110212909A1, “Use of Ginsenoside Compound K in the Preparation of a Medicament for the Prevention and Treatment of Atherosclerosis” (priority 2008, published 2011)
Marks after values point to notes of the source that are not given here.

Assays:
sCD40L = assay: Serum sCD40L by double antibody sandwich ELISA in apo E−/− mice; format: in vivo, mouse; details: 15 weeks
Protocol: (§1) 80 healthy clean grade C57BL/6J apo E^−/^− mice of 10 weeks old, wherein male and female mice were fifty-fifty, weight 20-22 g, were breed and divided into individual cage in sterile laminar flow rack, allowing mice to freely drink water and get food. Mice were raised for 30 weeks by “Western Diet” (routine mouse feed +0.15% cholesterol +21% fat) high fat feed (^60cobalt sterilization radiation treatment), with raising conditions being SPF grade, room temperature maintained at 24° C., relative humidity of 50%, and lighting time of 7: 30-19: 30. Animal house was sterilized by ultraviolet lamp once every two days, in order to maintain sterile environment of laminar flow rack (establishment of animal model of atherosclerosis refers to reference: Barish G D, Atkins A R, Downes M, Olson P, Chong L W, Nelson M, Zou Y H, Hwang H S, Kang H J, Curtiss L, Evans R M, Lee C H. PPARδ regulates multiple proinflammatory pathways to suppress atherosclerosis. Proc Natl Acad Sci, 2008, 105 (11): 4271-4276.).
5 mice of apo E^−/^− mice raised for 15 weeks were randomly selected and sacrificed, root of aorta of which was taken, and replication condition in AS model was observed by HE staining. The remaining mice were randomly divided into 5 groups as follows (n=15): […]
Above drugs were firstly solved in DMSO, then suspended in 0.5% carboxymethylcellulose solution, mixed homogeneously, and then were administered via gavage, once a day. Mice were weighted once a week, and ingestion amounts were recorded, and drug doses were adjusted according to weight, interfering for 15 weeks. […]
• blood fat assay: TC, TG, HDL-C, and LDL-C concentrations in serum were determined by applying Olympus Au2700 fully automatic biochemical appearance. • serum inflammatory markers assay: hs-CRP and sCD40L concentrations were determined by applying double antibody sandwich ELISA, in accordance with ELISA kit operating instruction (hs-CRP ELISA kit bought from Herrenberg company, Germany; sCD40L ELISA kit bought from Bender Medsystems company, Austria). • real-time quantitative PCR analysis was carried out on expression of CD36, perilipin, ABCA1, LXRα, MMP-9 and NF-κ B mRNA in apo E^−/^− mouse aorta (a reference method: Zhang Yiguan, Li Xiaohui, Fan Jishan, Zhang Haigang, Li Shuhui, Liao Wenqiang, Pang Yan, Jia Yi. […] 2007, 27 (11): 1601-1607)0 • morphology index image analysis: When slices were HE stained, under X40 fold ordinary light microscope, artery atherosclerosis plaque area of each incisal surface was determined by “Image Pro Plus 5.0” image analysis software. […]

[1] = system: AS plaque in apo E−/− mouse aorta; assay: Morphology index image analysis of AS plaque at aortic root (HE and MASSON staining); format: in vivo; details: apo E−/− mice, 15 weeks
Protocol: as §1
5 mice of apo E^−/^− mice raised for 15 weeks were randomly selected and sacrificed, root of aorta of which was taken, and replication condition in AS model was observed by HE staining. The remaining mice were randomly divided into 5 groups as follows (n=15):
A. model group: vehicle; B. ginsenoside compound K low dose group: ginsenoside compound K 12.5 mg/kg/day; C. ginsenoside compound K middle dose group: ginsenoside compound K 25.0 mg/kg/day; D. ginsenoside compound K high dose group: ginsenoside compound K 50.0 mg/kg/day; E. simvastatin control group: simvastatin 10.0 mg/kg/day.
Above drugs were firstly solved in DMSO, then suspended in 0.5% carboxymethylcellulose solution, mixed homogeneously, and then were administered via gavage, once a day. Mice were weighted once a week, and ingestion amounts were recorded, and drug doses were adjusted according to weight, interfering for 15 weeks. All the animal were sacrificed in 30th week.
Tissues of apo E^−/^− mice were sliced for AS plaque pathology: blood of eye sockets venous plexus of apo E−/− mice was sampled before the mice was sacrificed by cervical dislocation, and aorta was fixed by converse infusion of physiological saline comprising 4% paraformaldehyde into left ventricle, and then whole aorta was cut off from root of aorta to terminal end of abdomen aorta. Root of aorta was taken, and embedded routinely by paraffin, and slices of thickness of 5 μm were continuously cut off from root of aorta, and were subjected separately to HE staining, and MASSON staining, and then were utilized for AS plaque morphological index analysis of aortic valve cross section.
Pathological staining: […]sequent 2 pieces of slices were picked up from each incisal surface of sequent paraffin slices of aorta root per mouse, and were separately subjected to HE staining, and MASSON staining, and were observed under light microscope. […]remaining aorta was stained by Sudan IV, and was observed under light microscope.
• blood fat assay: TC, TG, HDL-C, and LDL-C concentrations in serum were determined by applying Olympus Au2700 fully automatic biochemical appearance. • serum inflammatory markers assay: hs-CRP and sCD40L concentrations were determined by applying double antibody sandwich ELISA, in accordance with ELISA kit operating instruction (hs-CRP ELISA kit bought from Herrenberg company, Germany; sCD40L ELISA kit bought from Bender Medsystems company, Austria). • real-time quantitative PCR analysis was carried out on expression of CD36, perilipin, ABCA1, LXRα, MMP-9 and NF-κ B mRNA in apo E^−/^− mouse aorta (a reference method: Zhang Yiguan, Li Xiaohui, Fan Jishan, Zhang Haigang, Li Shuhui, Liao Wenqiang, Pang Yan, Jia Yi. Total panax notoginsenosides suppress atherosclerosis formation in rats by means of antiinflammatory and blood fat regulating action. Progress in Modern Biomedicine. […]

[2] = C-K high dose 50.0 mg/kg/day gavage
[3] = C-K middle dose 25.0 mg/kg/day gavage
[4] = simvastatin 10.0 mg/kg/day gavage

## CC(C)=CCC[C@](C)(OC1OC(CO)C(O)C(O)C1O)C1CC[C@]2(C)C1[C@H](O)CC1[C@@]3(C)CC[C@H](O)C(C)(C)C3CC[C@]12C (stereo partly drawn) [C-K, 20-O-β-D-glucopyranosyl 20-(S)-protopanaxadiol]
sCD40L; [2]
  sCD40L concentration in serum: 5.19 ± 0.19^a ng/mL
sCD40L; C-K low dose 12.5 mg/kg/day gavage, model 6.15 ± 0.21
  sCD40L concentration in serum: 5.51 ± 0.35^a ng/mL
sCD40L; [3]
  sCD40L concentration in serum: 5.34 ± 0.32^a ng/mL
[1]; [2]
  CA (aortic root collagen area): 0.69 ± 0.13^b mm^2
  CA/CVA (corrected collagen area): 42.40 ± 6.74^b %
  CVA (vessel cross section area): 1.62 ± 0.12 mm^2
  LCA (lipid core area): 0.21 ± 0.03^b mm^2
  LCA/PA (corrected lipid core area): 40.01 ± 1.94^b %
  PA (plaque area): 0.52 ± 0.10^b mm^2
  PA/CVA (corrected plaque area): 32.29 ± 6.29^b %
  mFCT (minimal fibrous cap thickness): 30.65 ± 1.37^b μm
[1]; C-K low dose 12.5 mg/kg/day gavage, model 0.39 ± 0.13
  CA (aortic root collagen area): 0.56 ± 0.14^b mm^2
[1]; C-K low dose 12.5 mg/kg/day gavage, model 0.44 ± 0.05
  LCA (lipid core area): 0.32 ± 0.05^b mm^2
[1]; C-K low dose 12.5 mg/kg/day gavage, model 0.90 ± 0.12
  PA (plaque area): 0.78 ± 0.13^a mm^2
[1]; C-K low dose 12.5 mg/kg/day gavage, model 1.70 ± 0.19
  CVA (vessel cross section area): 1.68 ± 0.16 mm^2
[1]; C-K low dose 12.5 mg/kg/day gavage, model 20.40 ± 3.31
  mFCT (minimal fibrous cap thickness): 28.48 ± 1.89^b μm
[1]; C-K low dose 12.5 mg/kg/day gavage, model 22.60 ± 5.41
  CA/CVA (corrected collagen area): 33.33 ± 4.37^b %
[1]; C-K low dose 12.5 mg/kg/day gavage, model 48.28 ± 2.71
  LCA/PA (corrected lipid core area): 41.03 ± 1.32^b %
[1]; C-K low dose 12.5 mg/kg/day gavage, model 53.82 ± 10.02
  PA/CVA (corrected plaque area): 46.43 ± 7.38^a %
[1]; [3]
  CA (aortic root collagen area): 0.62 ± 0.09^b mm^2
  CA/CVA (corrected collagen area): 36.08 ± 4.82^b %
  CVA (vessel cross section area): 1.71 ± 0.14 mm^2
  LCA (lipid core area): 0.29 ± 0.05^b mm^2
  LCA/PA (corrected lipid core area): 40.33 ± 1.18^b %
  PA (plaque area): 0.72 ± 0.12^a mm^2
  PA/CVA (corrected plaque area): 42.26 ± 8.35^a %
  mFCT (minimal fibrous cap thickness): 30.44 ± 1.75^b μm

## CCC(C)(C)C(=O)O[C@H]1C[C@@H](C)C=C2C=C[C@H](C)[C@H](CC[C@@H]3C[C@@H](O)CC(=O)O3)[C@H]21 [simvastatin, reference compound]
sCD40L; [4]
  sCD40L concentration in serum: 4.59 ± 0.37^b ng/mL
[1]; [4]
  CA (aortic root collagen area): 0.57 ± 0.08^a mm^2
  CA/CVA (corrected collagen area): 34.73 ± 4.49^b %
  CVA (vessel cross section area): 1.65 ± 0.11 mm^2
  LCA (lipid core area): 0.32 ± 0.04^b mm^2
  LCA/PA (corrected lipid core area): 43.39 ± 4.01^b %
  PA (plaque area): 0.74 ± 0.17 mm^2
  PA/CVA (corrected plaque area): 44.70 ± 8.44^a %
  mFCT (minimal fibrous cap thickness): 27.72 ± 2.30^b μm
